In brackets after ≈: the same amount, converted by molar mass.
What was measured:
[1] = Selectivity index, ratio of maximum non-toxic concentration for human Caco-2 cells to MIC for methicillin-resistant Staphylococcus aureus USA500 NRS385; type: toxicity
Staphylococcus aureus [2] = assay: Ratio of MIC for methicillin-resistant Staphylococcus aureus USA400 NRS123 measured after 5th passage to MIC for methicillin-resistant Staphylococcus aureus USA400 NRS123 measured after 18 to 20 hrs by broth microdilution assay; type: functional
Enterococcus faecium [3] = assay: Ratio of MBC to MIC for vancomycin-resistant Enterococcus faecium ATCC 700221 assessed as inhibition of bacterial growth measured after 18 to 20 hrs by CLSI protocol based broth microdilution method; type: functional; conditions: time 18-20 hrs
Escherichia coli [4] = assay: Antibacterial activity against wild type Escherichia coli BW25113 assessed as inhibition of bacterial growth measured after 18 to 20 hrs by broth microdilution method; type: functional; conditions: time 18-20 hrs
Staphylococcus aureus [5] = assay: Antibacterial activity against methicillin-resistant Staphylococcus aureus USA400 NRS123 infected in mouse J774 cells assessed as reduction in intracellular bacterial burden at 2 x MIC measured after 24 hrs relative to control; type: functional
[6] = Selectivity index, ratio of maximum non-toxic concentration for human Caco-2 cells to MIC for methicillin-resistant Staphylococcus aureus USA300 NRS384; type: toxicity
[7] = tested on: Staphylococcus epidermidis; assay: Antibacterial activity against methicillin-resistant Staphylococcus epidermidis NRS101 assessed as inhibition of bacterial growth measured after 18 to 20 hrs by CLSI protocol based broth microdilution method; type: functional; conditions: time 18-20 hrs
Staphylococcus aureus [8] = assay: Antibacterial activity against methicillin-resistant Staphylococcus aureus USA400 NRS123 infected in mouse J774 cells assessed as log reduction in intracellular bacterial burden at 2 x MIC measured after 24 hrs; type: functional
Staphylococcus aureus [9] = assay: Antibacterial activity against methicillin-resistant Staphylococcus aureus USA400 NRS123 infected in mouse J774 cells assessed as log reduction in intracellular bacterial burden at 4 x MIC measured after 24 hrs; type: functional
Escherichia coli [10] = assay: Antibacterial activity against Escherichia coli JW55031 harboring toIC efflux mutant assessed as inhibition of bacterial growth measured after 18 to 20 hrs by broth microdilution method; type: functional; conditions: time 18-20 hrs
Enterococcus faecalis [11] = assay: microbe, parasite or virus in culture; conditions: ATCC 51299
Streptococcus pneumoniae [12] = assay: Ratio of MBC to MIC for cephalosporin-resistant Streptococcus pneumoniae ATCC 51916 assessed as inhibition of bacterial growth measured after 18 to 20 hrs by CLSI protocol based broth microdilution method; type: functional; conditions: time 18-20 hrs
[13] = Selectivity index, ratio of maximum non-toxic concentration for human Caco-2 cells to MIC for methicillin-resistant Staphylococcus aureus NRS119; type: toxicity
Staphylococcus aureus [14] = assay: microbe, parasite or virus in culture; conditions: USA500 NRS385
Staphylococcus aureus [15] = assay: Antibacterial activity against methicillin-resistant Staphylococcus aureus USA300 NRS384 assessed as inhibition of bacterial growth measured after 18 to 20 hrs by broth microdilution method; type: functional; conditions: time 18-20 hrs
Staphylococcus aureus [16] = assay: Ratio of MBC to MIC against methicillin-sensitive Staphylococcus aureus ATCC 6538 assessed as inhibition of bacterial growth measured after 18 to 20 hrs by CLSI broth microdilution method; type: functional; conditions: time 18-20 hrs
Staphylococcus aureus [17] = assay: microbe, parasite or virus in culture; conditions: USA700 NRS386
[18] = tested on: Staphylococcus epidermidis; assay: Ratio of MBC to MIC for methicillin-resistant Staphylococcus epidermidis NRS101 assessed as inhibition of bacterial growth measured after 18 to 20 hrs by CLSI protocol based broth microdilution method; type: functional; conditions: time 18-20 hrs
Staphylococcus aureus [19] = assay: Bactericidal activity against methicillin-resistant Staphylococcus aureus USA400 NRS123 assessed as post-antibiotic effect at 5 times MIC incubated for 2 hrs followed by compound wash-out by viable plate count method; type: functional
Staphylococcus aureus [20] = assay: Bactericidal activity against methicillin-resistant Staphylococcus aureus USA400 NRS123 assessed as log reduction in viable bacteria count at 5 times MIC incubated for 2 hrs in soy broth followed by incubation for 18 to 20 hrs on agar plate by time kill assay; type: functional; conditions: time 20-22 hrs
Staphylococcus aureus [21] = assay: Bactericidal activity against methicillin-resistant Staphylococcus aureus USA400 NRS123 assessed as eradication of bacterial count at 5 times MIC incubated for 8 hrs in soy broth followed by incubation for 18 to 20 hrs on agar plate by time kill assay; type: functional; conditions: time 26-28 hrs
Staphylococcus aureus [22] = assay: microbe, parasite or virus in culture; conditions: ATCC 6538
Enterococcus faecalis [23] = assay: Ratio of MBC to MIC for vancomycin-resistant Enterococcus faecalis ATCC 51299 assessed as inhibition of bacterial growth measured after 18 to 20 hrs by CLSI protocol based broth microdilution method; type: functional; conditions: time 18-20 hrs
Staphylococcus aureus [24] = assay: Ratio of MBC to MIC against methicillin-sensitive Staphylococcus aureus NRS107 assessed as inhibition of bacterial growth measured after 18 to 20 hrs by CLSI protocol based broth microdilution method; type: functional; conditions: time 18-20 hrs
[25] = Cytotoxicity against mouse J774 cells assessed as cell viability at 16 ug/ml incubated for 2 hrs by MTS assay relative to control; type: cell-based; conditions: at 16 µg/mL, read-out: Activity
Listeria monocytogenes [26] = assay: Antibacterial activity against Listeria monocytogenes ATCC 19111 assessed as inhibition of bacterial growth measured after 18 to 20 hrs by CLSI protocol based broth microdilution method; type: functional; conditions: time 18-20 hrs
Streptococcus pneumoniae [27] = assay: Ratio of MBC to MIC for methicillin-resistant Streptococcus pneumoniae ATCC 700677 assessed as inhibition of bacterial growth measured after 18 to 20 hrs by CLSI protocol based broth microdilution method; type: functional; conditions: time 18-20 hrs
[28] = Selectivity index, ratio of maximum non-toxic concentration for human Caco-2 cells to MIC for methicillin-resistant Staphylococcus aureus USA400 NRS123; type: toxicity
Staphylococcus aureus [29] = assay: Ratio of MIC for methicillin-resistant Staphylococcus aureus USA400 NRS123 measured after 11th passage to MIC for methicillin-resistant Staphylococcus aureus USA400 NRS123 measured after 18 to 20 hrs by broth microdilution assay; type: functional
Staphylococcus aureus [30] = assay: Antibacterial activity against vancomycin-resistant Staphylococcus aureus 10 assessed as inhibition of bacterial growth measured after 18 to 20 hrs by CLSI protocol based broth microdilution method; type: functional; conditions: time 18-20 hrs
Streptococcus pneumoniae [31] = assay: Antibacterial activity against methicillin-resistant Streptococcus pneumoniae ATCC 700677 assessed as inhibition of bacterial growth measured after 18 to 20 hrs by CLSI protocol based broth microdilution method; type: functional; conditions: time 18-20 hrs
Staphylococcus aureus [32] = assay: microbe, parasite or virus in culture; conditions: NRS107
Staphylococcus aureus [33] = assay: Antibacterial activity against vancomycin-resistant Staphylococcus aureus 12 assessed as inhibition of bacterial growth measured after 18 to 20 hrs by CLSI protocol based broth microdilution method; type: functional; conditions: time 18-20 hrs
Listeria monocytogenes [34] = assay: Ratio of MBC to MIC for Listeria monocytogenes ATCC 19111 assessed as inhibition of bacterial growth measured after 18 to 20 hrs by CLSI protocol based broth microdilution method; type: functional; conditions: time 18-20 hrs
[35] = Cytotoxicity against human Caco-2 cells assessed as cell viability at 32 ug/ml incubated for 2 hrs by MTS assay relative to control; type: cell-based; conditions: at 32 µg/mL, read-out: Activity
Staphylococcus aureus [36] = assay: microbe, parasite or virus in culture; conditions: NRS119
[37] = Cytotoxicity against mouse J774 cells assessed as cell viability at 32 ug/ml incubated for 2 hrs by MTS assay; type: cell-based; conditions: J774 cells, at 32 µg/mL, read-out: Activity
Streptococcus pneumoniae [38] = assay: Antibacterial activity against cephalosporin-resistant Streptococcus pneumoniae ATCC 51916 assessed as inhibition of bacterial growth measured after 18 to 20 hrs by CLSI protocol based broth microdilution method; type: functional; conditions: time 18-20 hrs
Staphylococcus aureus [39] = assay: microbe, parasite or virus in culture; conditions: USA400 NRS123
[40] = Selectivity index, ratio of maximum non-toxic concentration for human Caco-2 cells to MIC for methicillin-resistant Staphylococcus aureus USA700 NRS386; type: toxicity
Enterococcus faecium [41] = assay: Antibacterial activity against vancomycin-resistant Enterococcus faecium ATCC 700221 assessed as inhibition of bacterial growth measured after 18 to 20 hrs by CLSI protocol based broth microdilution method; type: functional; conditions: time 18-20 hrs
Staphylococcus aureus [42] = assay: Antibacterial activity against methicillin-resistant Staphylococcus aureus USA400 NRS123 infected in mouse J774 cells assessed as reduction in intracellular bacterial burden at 4 x MIC measured after 24 hrs relative to control; type: functional

Structure (SMILES): C/C(=N\NC(=N)N)c1ccc(Nc2nc(-c3ccccc3)cs2)cc1
- selectivity ratio [1]: 16
- Ratio (Staphylococcus aureus [2]): 1
- Ratio (Enterococcus faecium [3]): 1
- MIC (Escherichia coli [4]): 8 mg/L (≈ 22.8 µM)
- inhibition (INH) (Staphylococcus aureus [5]): 88%
- selectivity ratio [6]: 16
- MBC [7]: 1 mg/L (≈ 2.85 µM)
- MIC [7]: 1 mg/L (≈ 2.85 µM)
- Activity (Staphylococcus aureus [8]): 1.07 log10CFU/ml
- Activity (Staphylococcus aureus [9]): 1.19 log10CFU/ml
- MIC (Escherichia coli [10]): 4 mg/L (≈ 11.4 µM)
- MBC (Enterococcus faecalis [11]): 4 mg/L (≈ 11.4 µM)
- MIC (Enterococcus faecalis [11]): 2 mg/L (≈ 5.71 µM)
- Ratio (Streptococcus pneumoniae [12]): 1
- selectivity ratio [13]: 16
- MBC (Staphylococcus aureus [14]): 2 mg/L (≈ 5.71 µM)
- MIC (Staphylococcus aureus [14]): 2 mg/L (≈ 5.71 µM)
- MIC (Staphylococcus aureus [15]): 2 mg/L (≈ 5.71 µM)
- Ratio (Staphylococcus aureus [16]): 1
- MBC (Staphylococcus aureus [17]): 8 mg/L (≈ 22.8 µM)
- MIC (Staphylococcus aureus [17]): 2 mg/L (≈ 5.71 µM)
- Ratio [18]: 1
- PAE (Staphylococcus aureus [19]): 2 h
- Activity (Staphylococcus aureus [20]): 3 log10CFU/ml
- Activity (Staphylococcus aureus [21]): 100%
- MBC (Staphylococcus aureus [22]): 2 mg/L (≈ 5.71 µM)
- MIC (Staphylococcus aureus [22]): 2 mg/L (≈ 5.71 µM)
- Ratio (Enterococcus faecalis [23]): 1
- Ratio (Staphylococcus aureus [24]): 1
- viability at 2 h, 16 ug/ml [25]: 100%
- MBC (Listeria monocytogenes [26]): 4 mg/L (≈ 11.4 µM)
- MIC (Listeria monocytogenes [26]): 1 mg/L (≈ 2.85 µM)
- Ratio (Streptococcus pneumoniae [27]): 1
- selectivity ratio [28]: 16
- Ratio (Staphylococcus aureus [29]): 3
- MBC (Staphylococcus aureus [30]): 2 mg/L (≈ 5.71 µM)
- MIC (Staphylococcus aureus [30]): 2 mg/L (≈ 5.71 µM)
- MBC (Streptococcus pneumoniae [31]): 8 mg/L (≈ 22.8 µM)
- MIC (Streptococcus pneumoniae [31]): 2 mg/L (≈ 5.71 µM)
- MBC (Staphylococcus aureus [32]): 4 mg/L (≈ 11.4 µM)
- MIC (Staphylococcus aureus [32]): 1 mg/L (≈ 2.85 µM)
- MBC (Staphylococcus aureus [33]): 4 mg/L (≈ 11.4 µM)
- MIC (Staphylococcus aureus [33]): 2 mg/L (≈ 5.71 µM)
- Ratio (Listeria monocytogenes [34]): 1
- viability at 2 h, 32 ug/ml [35]: 100%
- MBC (Staphylococcus aureus [36]): 4 mg/L (≈ 11.4 µM)
- MIC (Staphylococcus aureus [36]): 2 mg/L (≈ 5.71 µM)
- viability at 2 h, 32 ug/ml [37]: 100%
- MBC (Streptococcus pneumoniae [38]): 4 mg/L (≈ 11.4 µM)
- MIC (Streptococcus pneumoniae [38]): 2 mg/L (≈ 5.71 µM)
- MBC (Staphylococcus aureus [39]): 2 mg/L (≈ 5.71 µM)
- MIC (Staphylococcus aureus [39]): 2 mg/L (≈ 5.71 µM)
- selectivity ratio [40]: 16
- MBC (Enterococcus faecium [41]): 4 mg/L (≈ 11.4 µM)
- MIC (Enterococcus faecium [41]): 2 mg/L (≈ 5.71 µM)
- inhibition (INH) (Staphylococcus aureus [42]): 93%
